Values joined by “and” are separate entries in the source; they are usually repeats but may differ in a detail not shown here. Equal values may be shown once. Inconclusive results and toxic doses are left out. How the source made its calls: active means survival T/C of 150% or more; inactive means T/C below 125% in these data.
Test system: P388 leukemia ip, CD2F1 mice, survival T/C
Test: NCI In Vivo Anticancer Drug Screen. Data for tumor model P388 Leukemia (intraperitoneal) in CD2F1 (CDF1) mice
Conditions: endpoint: median survival time, higher = longer survival
Procedure, shortened: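 Mice carrying the transplanted tumor received test compound or vehicle. Survival was recorded in each group, and the value is the treated-group measurement divided by that of the vehicle-treated control group.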

[1] = dose: 50.0 mg/kg/injection, schedule: Q01DX005 (ip), vehicle: saline
[2] = dose: 100.0 mg/kg/injection, schedule: Q01DX005 (ip), vehicle: saline
[3] = dose: 200.0 mg/kg/injection, schedule: Q01DX005 (ip), vehicle: saline
[4] = dose: 50.0 mg/kg/injection, schedule: Q01DX005 (ip), vehicle: saline with Tween-80
[5] = dose: 100.0 mg/kg/injection, schedule: Q01DX005 (ip), vehicle: saline with Tween-80
[6] = dose: 200.0 mg/kg/injection, schedule: Q01DX005 (ip), vehicle: saline with Tween-80
[7] = dose: 50.0 mg/kg/injection, schedule: Q01DX009 (ip), vehicle: saline
[8] = dose: 100.0 mg/kg/injection, schedule: Q01DX009 (ip), vehicle: saline
[9] = dose: 50.0 mg/kg/injection, schedule: Q01DX005 (ip), vehicle: Klucel (hydroxypropylcellulose) (HPC)
[10] = dose: 100.0 mg/kg/injection, schedule: Q01DX005 (ip), vehicle: Klucel (hydroxypropylcellulose) (HPC)
[11] = dose: 200.0 mg/kg/injection, schedule: Q01DX005 (ip), vehicle: Klucel (hydroxypropylcellulose) (HPC)
[12] = dose: 60.0 mg/kg/injection, schedule: Q01DX005 (ip), vehicle: saline with Tween-80
[13] = dose: 120.0 mg/kg/injection, schedule: Q01DX005 (ip), vehicle: saline with Tween-80
[14] = dose: 240.0 mg/kg/injection, schedule: Q01DX005 (ip), vehicle: saline with Tween-80
[15] = dose: 50.0 mg/kg/injection, schedule: Q01DX009 (ip), vehicle: saline with Tween-80
[16] = dose: 100.0 mg/kg/injection, schedule: Q01DX009 (ip), vehicle: saline with Tween-80
[17] = dose: 200.0 mg/kg/injection, schedule: Q01DX009 (ip), vehicle: saline with Tween-80

Measured: T/C

COc1ccc(C2=C(Cl)C(=O)N(c3ccccc3Cl)C(=O)C2(Cl)Cl)cc1
inactive: dose: 100.0 mg/kg/injection, schedule: Q04DX002 (ip), vehicle: Klucel (hydroxypropylcellulose) (HPC) 105 % of control | dose: 200.0 mg/kg/injection, schedule: Q04DX002 (ip), vehicle: Klucel (hydroxypropylcellulose) (HPC) 112 % of control | dose: 400.0 mg/kg/injection, schedule: Q04DX002 (ip), vehicle: Klucel (hydroxypropylcellulose) (HPC) 113 % of control

Cn1nc(C(=O)O)c(=O)[nH]c1=O
inactive: [1] 98 % of control | [2] 95 % of control | [3] 98 % of control

Cc1cc2oc3c(ccc(=O)n3C)c(=O)c2c(C)c1Cl
inactive: [4] 104 % of control | [5] 113 % of control | [6] 88 % of control

Nc1nc(N)nc(CCc2nc(N)nc(N)n2)n1
inactive: [7] 103 % of control | [8] 88 % of control | dose: 200.0 mg/kg/injection, schedule: Q01DX009 (ip), vehicle: saline 98 % of control

COC(=O)/C(C#N)=C/c1ccco1
inactive: [9] 98 % of control | [10] 98 % of control

ClCCN(Cc1ccccc1)Cc1ccccc1
inactive: dose: 3.13 mg/kg/injection, schedule: Q01DX009 (ip), vehicle: saline with Tween-80 104 % of control | dose: 6.25 mg/kg/injection, schedule: Q01DX009 (ip), vehicle: saline with Tween-80 119 % of control | dose: 12.5 mg/kg/injection, schedule: Q01DX009 (ip), vehicle: saline with Tween-80 123 % of control

S=C(S)N1CCCCCC1
inactive: dose: 60.0 mg/kg/injection, schedule: Q01DX005 (ip), vehicle: suspension in saline 97 % of control | dose: 120.0 mg/kg/injection, schedule: Q01DX005 (ip), vehicle: suspension in saline 95 % of control

CC(C)(C)B1N(c2ccccc2)N=NN1C(C)(C)C
inactive: dose: 60.0 mg/kg/injection, schedule: Q01DX005 (ip), vehicle: saline 100 % of control | dose: 120.0 mg/kg/injection, schedule: Q01DX005 (ip), vehicle: saline 99 % of control and 88 % of control | dose: 240.0 mg/kg/injection, schedule: Q01DX005 (ip), vehicle: saline 96 % of control and 98 % of control

CC(C1N(c2ccc(C(=O)NC(CCC(=O)O)C(=O)O)cc2)CC2CNc3nc(N)[nH]c(=O)c3N21)C1N(c2ccc(C(=O)NC(CCC(=O)O)C(=O)O)cc2)CC2CNc3nc(N)[nH]c(=O)c3N21 (centres undefined)
inactive: dose: 50.0 mg/kg/injection, schedule: Q01DX001 (ip), vehicle: saline 94 % of control | dose: 100.0 mg/kg/injection, schedule: Q01DX001 (ip), vehicle: saline 108 % of control | dose: 200.0 mg/kg/injection, schedule: Q01DX001 (ip), vehicle: saline 116 % of control

O=NNc1ccccn1
active: dose: 12.0 mg/kg/injection, schedule: Q01DX009 (ip), vehicle: water 151 % of control and 163 % of control | dose: 25.0 mg/kg/injection, schedule: Q01DX009 (ip), vehicle: saline + alcohol 175 % of control
inactive: dose: 0.78 mg/kg/injection, schedule: Q01DX009 (ip), vehicle: saline 106 % of control | dose: 1.5 mg/kg/injection, schedule: Q01DX009 (ip), vehicle: saline 100 % of control | dose: 1.5 mg/kg/injection, schedule: Q01DX009 (ip), vehicle: water 103 % of control | dose: 1.56 mg/kg/injection, schedule: Q01DX005 (ip), vehicle: water 103 % of control and 106 % of control and 112 % of control | dose: 1.56 mg/kg/injection, schedule: Q01DX009 (ip), vehicle: saline + alcohol 108 % of control | dose: 1.59 mg/kg/injection, schedule: Q01DX009 (ip), vehicle: water 119 % of control | dose: 3.0 mg/kg/injection, schedule: Q01DX009 (ip), vehicle: saline 118 % of control | dose: 3.0 mg/kg/injection, schedule: Q01DX009 (ip), vehicle: water 121 % of control | dose: 3.12 mg/kg/injection, schedule: Q01DX009 (ip), vehicle: saline + alcohol 123 % of control

O=c1[nH]c(=O)c2[nH]c(Br)nc2[nH]1
inactive: [9] 102 % of control | [10] 100 % of control | [11] 100 % of control

CC1(Cl)C(c2ccccc2)=[N+]([O-])[N+]([O-])=C1c1ccccc1
inactive: dose: 100.0 mg/kg/injection, schedule: Q04DX002 (ip), vehicle: saline with Tween-80 112 % of control | dose: 200.0 mg/kg/injection, schedule: Q04DX002 (ip), vehicle: saline with Tween-80 112 % of control

CC(NC(=O)C(N)CCC(=O)O)C(=O)O (centres undefined)
inactive: [1] 103 % of control | [2] 100 % of control | [3] 107 % of control

C1=Cc2ccccc2/C1=C/c1cc2c3c(c1)CCCN3CCC2
inactive: dose: 60.0 mg/kg/injection, schedule: Q01DX005 (ip), vehicle: Klucel (hydroxypropylcellulose) (HPC) 95 % of control | dose: 120.0 mg/kg/injection, schedule: Q01DX005 (ip), vehicle: Klucel (hydroxypropylcellulose) (HPC) 91 % of control | dose: 240.0 mg/kg/injection, schedule: Q01DX005 (ip), vehicle: Klucel (hydroxypropylcellulose) (HPC) 92 % of control

C=C1N=NN(c2cccc(C(F)(F)F)c2)C1N1CCOCC1 (centres undefined)
inactive: [12] 99 % of control | [13] 100 % of control

O=C1c2ccccc2-c2ccc(NC(=O)C34CC5CC(CC(C5)C3)C4)cc21
inactive: [9] 86 % of control | [10] 87 % of control | [11] 90 % of control

C[C@@]12C[C@@H](Br)[C@H](Br)C[C@]1(C)O2
inactive: [4] 104 % of control | [5] 106 % of control | [6] 101 % of control

CC12CCC(=O)N1C(C(=O)O)CS2 (centres undefined)
inactive: dose: 12.5 mg/kg/injection, schedule: Q04DX003 (ip), vehicle: saline 119 % of control | dose: 25.0 mg/kg/injection, schedule: Q04DX003 (ip), vehicle: saline 99 % of control and 106 % of control | dose: 50.0 mg/kg/injection, schedule: Q04DX003 (ip), vehicle: saline 102 % of control and 109 % of control and 97 % of control | dose: 100.0 mg/kg/injection, schedule: Q04DX003 (ip), vehicle: saline 98 % of control and 123 % of control and 97 % of control | dose: 200.0 mg/kg/injection, schedule: Q04DX003 (ip), vehicle: saline 107 % of control | dose: 400.0 mg/kg/injection, schedule: Q04DX003 (ip), vehicle: saline 91 % of control

COC(=O)C1=NC(=N)N=C(C(=O)OC)C1(C)C(=O)c1ccc(Cl)cc1 (centres undefined)
inactive: [12] 100 % of control and 104 % of control | [13] 98 % of control | [14] 99 % of control

CC1CC(N)=NC1C(=O)NCCC#N (centres undefined)
inactive: dose: 12.5 mg/kg/injection, schedule: Q01DX009 (ip), vehicle: saline 97 % of control | dose: 25.0 mg/kg/injection, schedule: Q01DX009 (ip), vehicle: saline 101 % of control | [7] 98 % of control | [8] 90 % of control

O=C1CC2(CCCCC2)CC(=O)N1c1ccc(O)c(CN(Cc2ccccc2)Cc2ccccc2)c1
inactive: dose: 100.0 mg/kg/injection, schedule: Q04DX003 (ip), vehicle: Klucel (hydroxypropylcellulose) (HPC) 90 % of control | dose: 200.0 mg/kg/injection, schedule: Q04DX003 (ip), vehicle: Klucel (hydroxypropylcellulose) (HPC) 92 % of control | dose: 400.0 mg/kg/injection, schedule: Q04DX003 (ip), vehicle: Klucel (hydroxypropylcellulose) (HPC) 93 % of control

CCCCCN(CCCCC)CC(O)c1ccc(OC)c2ccccc12 (centres undefined)
inactive: [9] 88 % of control | [10] 88 % of control

COc1cc(OC)cc(C2SCC(=O)N2c2nncs2)c1 (centres undefined)
inactive: [12] 107 % of control | [13] 98 % of control | [14] 93 % of control

NC(=O)C1=NOC(C(N)=O)C1C1OC(CO)C(O)C1O (centres undefined)
inactive: dose: 25.0 mg/kg/injection, schedule: Q01DX005 (ip), vehicle: other 98 % of control | dose: 50.0 mg/kg/injection, schedule: Q01DX005 (ip), vehicle: other 97 % of control | dose: 100.0 mg/kg/injection, schedule: Q01DX005 (ip), vehicle: other 95 % of control | dose: 200.0 mg/kg/injection, schedule: Q01DX005 (ip), vehicle: other 105 % of control

CCCCN(CCCC)c1nsc(N2CCOCC2)n1
inactive: [15] 94 % of control | [16] 100 % of control | [17] 108 % of control

Cc1[nH]cc2c1C(c1ccccc1)=NCC(=O)N2
inactive: [15] 105 % of control | [16] 100 % of control | [17] 114 % of control

O=C(c1ccccc1)c1ccccc1NCC(O)COc1ccc(Cl)cc1 (centres undefined)
inactive: [12] 88 % of control and 96 % of control | [13] 100 % of control | [14] 99 % of control
